Key:
[1] = solubility; format: physicochemical
[2] = absorption wavelength (λmax) and extinction (ε); format: physicochemical; conditions: for λmax in EtOH (first value) / ε (first value): Table 1, EtOH; for ε (first value): at first λmax, in M-1cm-1 (unit assumed); for λmax: synthesis example
[3] = pencil hardness
Protocol: (§1) To a resin formulation consisting of 15 parts urethane diacrylate, 15 parts DPHPA, 20 parts TPGDA and 40 parts TMPTA was added DIDMA, initiator and (4-octyloxyphenyl)phenyliodonium hexafluoroantimonate (OPPI). The samples were coated to a thickness of 15 microns and exposed to a 75 W tungsten halogen dental lamp (focused through an optical fiber) at a distance of 0.75 inch at which the Light intensity was about 0.40 W/cm^2. The molar ratios are indicative of the amounts of fluorone to onium salt to amine coinitiator. The double bond conversion was determined by FTIR spectroscopy. The pencil hardness of a given test sample is measured by holding a pencil at a 45° angle to the sample and drawing across it towards the person testing it. Using the pencils in an order from softest to hardest, the first pencil that scratches the surface is assigned as the pencil hardness of the sample. The pencil hardness scale is as follows from softest to hardest: 4B, 3B, 2B, B, HB, H, 2H, 3H, 4H, 6H. For instance, if a 2H pencil is the first pencil to scratch the surface then the pencil hardness is 2H.
At the extreme ends of the scale, it is impossible to determine the actual pencil hardness. […] Likewise, if the 4B pencil scratches the sample, the only assignment that can be made is <4B, unless it is a lot softer than 4B in which case a <<4B can be assigned. A pencil hardness of 4H is generally considered satisfactory. Pencil hardness data was greater than 6H after 30 seocnd exposure for all samples except for the control samples without amine (1:2:0). The controls were all less than 4B an 0.05 wt %, 0.10 wt %, and 0.15 wt %.
Photosensitive compositions were prepared from the resin formulation of Example 35 containing 1% NPG and 0.05% DIBF or 0.05% DIEF. The samples were exposed under the conditions shown in the following table and pencil hardness was measured.
Diphenyliodonium hexafluoroantimonate was added to DIBF samples.
Samples were also prepared using 1% DIDMA in addition to the fluorone for a 20:1 weight ratio.
Samples were also prepared from the same resin formulation containing 0.1% DIBF in addition to the coinitiator listed in the following Table 9 with the exposure condition and pencil hardness results shown.
Using the resin formulation of Example 36, photosensitive compositions were prepared using TIHF, DIDMA and OPPI at a concentration of 0.21% and in the molar ratios shown in Table 10 which follows. Exposure was conducted with the dental lamp at a distance of 1 inch from the sample to provide an intensity of about 0.26 W/cm^2. Molar ratios are fluorone:onium salt:amine.

[4] = double bond conversion (C=C% Conversion) by FTIR; conditions: addition of coinitiator to onium salt composition
Protocol: as §1

[5] = film speed; conditions: addition of coinitiator to onium salt composition
Text: Examples of onium salts useful in the invention can be found in published European Patent Application 0 408227A1. The preferred onium salts for use in the invention are diphenyliodonium salts such as diphenyliodonium hexafluorophosphate, arsenates, antimonates, etc., and, more particularly,hexafluoro-antimonate. Onium salts of simple anions such as chlorides, bromides, etc. are also useful in free radical polymerizable compositions. A particularly preferred onium salt is OPPI below. Addition of a coinitiator such as NPG improves film speed, pencil hardness and double bond conversion. A particularly preferred initiator system is a combination of an iodofluorone in accordance with the invention such as TIHF or DIBF, an amine such as NPG or DIDMA and an onium salt. A preferred molar ratio of fluorone to onium salt to amine is about 1:2:3. […] These onium salt formulations are illustrated in the following Examples 35-37.

[6] = fluorescence (λf, φf); format: physicochemical
Text: In Table 2 below, the properties of the foregoing initiators are shown:
Entries in the table are in the solvents according to the following order.

[7] = oxidation and reduction potentials (Eox, Ered); format: physicochemical; conditions: in V (unit assumed)
Text: (§2) In Table 2 below, the properties of the foregoing initiators are shown: […]

[8] = pKa; format: physicochemical
Text: as §2

[9] = depth of cure; conditions: other fluorone dyes
Text: One of the advantages of the fluorone dye photoinitiators in this invention is the depth of the cure that is obtainable. This is in contrast to UV photoinitators that causes a "screening" effect which prevents the UV light from penetrating beyond a certain […] depth, usually several millimeters. By contrast, the fluorone dye bleaches as it photoinitiates and is concommitantly converted into a non-visible absorbing species thus allowing more visible light to penetrate which continues the cure. This cascading bleaching effect permits substantial depth of cure which can easily reach several inches.
An acrylate monomer mixture was composed of 15 parts urethane diacrylate, 20 parts TPGPA, 40 parts TMPTA and 15 parts DPHPA, and a 20 to 1 weight ratio of NPG coinitiator to DIEF or DIBF fluorone dye. For dye concentrations of 0.01, 0.05 and 0.1 weight, all the formulations cured to a depth of 3 cm in 30 seconds when exposed to a 350 watt tungsten halogen light which provides about 500 mw/cm^2 irradiance. When the irradiance was increased to about 2 watts/cm^2 cure speed was shortened to 5 seconds for the same depth.
An acrylate mixture was composed of 60% urethane diacrylate, 30% DPHPA, 10% BDDA, and 0.05 weight % of DIEF or DIBF fluorone dye with 2 weight % of DIDMA. The formulation cure to a depth greater than 1 cm in 10 seconds when exposed to a 75 watt tungsten halogen lamp which provided an irradiance of about 260 mw/cm^2.
An acrylate mixture was composed of 33% TMPTA, 33% DPHPA, 33% Epoxy acrylate, and 2% of DIDMA with either 0.01, 0.05 or 0.1 weight % of DIEF. All samples cured to a depth greater than 1 cm in 10 seconds when exposed to a 75 watt tungsten halogen.
An acrylate mixture was composed of 70% urethane diacrylate, 5% DPHPA, 25% BDDA, and 2% DIDMA with either 0.01, 0.03 or 0.1 weight % DIEF. The 0.01 and 0.03 samples cured after 2 passes through a 300 watt per inch medium pressure mercury arc lamp at a speed of 50 feet/minute to a depth greater than 3 mm. The 0.1 sample cured to a depth of greater than 1.5 mm.

CCCCCCCC(=O)c1cc2cc3cc(I)c(=O)c(I)c-3oc2c(I)c1O [Compound 17, 3-hydroxy-4,5,7-triiodo-2octanoyl-6-fluorone]
solubility in CDCl3 [1]: almost no solubility
solubility in DMSO ([1]; DMSO): poor solubility
λmax in EtOH (first value) [2]: 538
ε (first value) [2]: 84,800

CCCCCCCC(=O)c1cc2c(C#N)c3cc(I)c(=O)c(I)c-3oc2c(I)c1O [Compound 18, 9-cyano-3-hydroxy-4,5,7-triiodo-2-octanoyl-6-fluorone]
solubility in CDCl3 [1]: very good solubility
λmax in EtOH (first value) [2]: 636
ε (first value) [2]: 17,000
absorption wavelength ([2]; comparison): 638 nm

O=C(O)CNc1ccccc1 [NPG, N-phenylglycine, reference compound]
Pencil hardness ([3]; addition of coinitiator to onium salt composition): improves
double bond conversion [4]: improves
film speed [5]: improves

O=c1c(Br)cc2cc3cc(Br)c(O)c(Br)c3oc-2c1Br [TBHF, 3-hydroxy-2,4,5,7-tetrabromo-6-fluorone]
λmax in EtOH (first value) [2]: 530
ε (first value) [2]: 39300
λmax ([2]; methanol): 526 nm
φf [6]: .52
λf ([6]; MeOH): 539 nm
Eox [7]: 1.099
Ered [7]: -.95
pKa [8]: 3.28

O=c1c(I)cc2cc3cc(I)c(O)c(I)c3oc-2c1I [TIHF, 3-hydroxy-2,4,5,7-tetraiodo-6-fluorone]
Pencil hardness ([3]; 0.21%, TIHF:OPPI:DIDMA (1:1:0), dental lamp 60 sec.): 4H
Pencil hardness ([3]; 0.21%, TIHF:OPPI:DIDMA (1:1:1), dental lamp 60 sec.): 5-6H
Pencil hardness ([3]; 0.21%, TIHF:OPPI:DIDMA (1:1:5), dental lamp 60 sec.): > 6H
Pencil hardness ([3]; 0.21%, TIHF:OPPI:DIDMA (1:1:10), dental lamp 60 sec.): > 6H
Pencil hardness ([3]; 0.21%, TIHF:OPPI:DIDMA (1:1:33), dental lamp 60 sec.): > 6H
Pencil hardness ([3]; 0.21%, TIHF:OPPI:DIDMA (1:2:0), dental lamp 60 sec.): 5-6H
Pencil hardness ([3]; 0.21%, TIHF:OPPI:DIDMA (1:2:5), dental lamp 60 sec.): > 6H
Pencil hardness ([3]; 0.21%, TIHF:OPPI:DIDMA (1:2:10), dental lamp 60 sec.): > 6H
Pencil hardness ([3]; 0.21%, TIHF:OPPI:DIDMA (1:2:33), dental lamp 60 sec.): > 6H
Pencil hardness ([3]; 0.21%, TIHF:OPPI:DIDMA (1:5:)), dental lamp 60 sec.): 5-6H
Pencil hardness ([3]; 0.21%, TIHF:OPPI:DIDMA (1:10:0), dental lamp 60 sec.): 5-6H
λmax in EtOH (first value) [2]: 536
ε (first value) [2]: 91200
λmax ([2]; ethanol): 536 nm
φf [6]: .13
Eox [7]: 1.04
Ered [7]: -.95
pKa [8]: 4.08
depth of cure results [9]: have also been observed

From patent US5623080A, “Fluorone and pyronin Y derivatives” (Spectra Group Limited, Inc., priority 1995, dated 1997)
